Measurements reported in US20160274123A1, “One-Photon and/or Two-Photon Fluorescent Probe for Sensing Hydrogen Sulfide, Imaging Method of Hydrogen Sulfide Using Same, and Manufacturing Method Thereof” (POSTECH ACADEMY-INDUSTRY FOUNDATION, priority 2013, published 2016).
Entries after “also recorded” stand apart in the source; their conditions may differ.

Assays:
[1] = Fluorescence change of the probe on reaction with hydrogen sulfide in buffer; conditions: Compound 10 μM
Method: A mechanism of a fluorescence turn-on phenomenon according to a reaction between Compound 2 and hydrogen sulfide is shown in FIG. 1a, an α-β unsaturated carbonyl group of Compound 2 reacted with hydrogen sulfide to induce a ring-shape in a chemical reaction.
Therefore, to observe the fluorescence change of Compound 2 due to hydrogen sulfide, a fluorescence graph of Compound 2 was measured in a buffer (pH 7.4, 10 mM HEPES buffer). For fluorescence spectra analysis, a photon technical international fluorescence system manufactured by PTI was used, as a cell providing Compound 2 to each instrument, a standard quartz cell having a thickness of 1 cm was used. First, Compound 2 (10 μM) was treated with hydrogen sulfide at a concentration of 0 to 50 μM, and after 5 minutes, a fluorescence graph was checked.
To observe the fluorescence change of Compound 2 over time due to hydrogen sulfide, Compound 2 (10 μM) was treated with 100 μM of hydrogen sulfide (using the same buffer as used in Example 1), and a graph of fluorescence over time was analyzed. When an excitation wavelength was 375 nm, a fluorescence emission wavelength was detected to be 510 nm.
To observe the hydrogen sulfide sensitivity of Compound 2 based on fluorescence change, an amount of Na2S (the same as H2S) in Compound 2 (10 μM) was reduced. A buffer used in the experiment was the same as used in Example 1, 50 nM of Na2S was added, an excitation wavelength was 375 nm, and a fluorescence emission wavelength was detected to be 510 nm.
To observe fluorescence changes of Compound 2 due to hydrogen sulfide under various acidity (pH) conditions, the fluorescence changes were examined when Compound 2 (10 μM) bound to H2S under various acidity conditions (pH 5˜9). In other words, 100 μM of H2S reacted to Compound 2 at pH 5, 6, 7, 8, or 9, and then 5 minutes later, a fluorescence intensity was measured. Here, an excitation wavelength was 375 nm, and a fluorescence emission wavelength was detected to be 510 nm.

[2] = Fluorescence change under hydrogen sulfide and biological sulfide conditions (selectivity); conditions: Compound 10 μM; Na2S 100 μM, GSH 10 mM, Cys 200 μM, Hcy 50 μM; pH 7.4 HEPES buffer; excitation 375 nm, emission 510 nm
Method: To confirm the hydrogen sulfide selectivity of Compound 2 under hydrogen sulfide and biological sulfide conditions, the fluorescence change of Compound 2 (10 μM) was observed under biological sulfide conditions (Na2S (100 μM), the same material as H2S), glutathione (GSH, 10 mM), cysteine (Cys, 200 μM), and homocysteine (Hcy, 50 μM) (using the same buffer as used in Example 1)). Here, an excitation wavelength was 375 nm, and a fluorescence emission wavelength was detected to be 510 nm.
That is, the fluorescence changes of Compounds 2, 3 and 4 (10 μM) were observed under the biological sulfide conditions (Na2S (100 μM, the same as H2S), glutathione (GSH, 10 mM), cysteine (Cys, 200 μM), homocysteine (Hcy, 50 μM)), a buffer used in the experiment was the same as used in Example 1, an excitation wavelength was 375 nm, and a fluorescence emission wavelength was detected to be 510 nm.

HeLa cells [3] = test: Cytotoxicity experiment by MTT method; format: cell-based, human
Method: To confirm the cytotoxicity of Compound 2 according to the present invention, a cytotoxicity experiment in HeLa cells was performed by an MTT method. That is, the Hela cells prepared by the same method as used in Example 7 were treated with Compound 2 at each concentration (0˜100 μM). In addition, to confirm the cytotoxicity, 25 μL of 3-(4,5-dimethldiazol-2-yl)-2, 5-diphenyltetrazolium bromide (MTT) having a concentration of 5 mg/mL was added. The cells were cultured at 37° C. for about 2 hours, treated with 100 μL of a solubilizing solution (50% dimethylformamide, 20% SDS, pH 7.4), and cultured at 37° C. for 24 hours, and then the absorbance was measured at 570 nm.

[4] = test system: hydrogen sulfide (H2S) in each organ (the brain, kidney, liver, spleen or lung) of a mouse; test: Mouse organ tissue imaging using two-photon fluorescence microscope; format: in vivo
Method: Tissue imaging per each organ of a Compound 2 treated mouse was performed using a two-photon fluorescence microscope. That is, the distribution of hydrogen sulfide (H2S) in each organ (the brain, kidney, liver, spleen or lung) of a mouse was confirmed using Compound 2. To this end, a set (1′) was prepared by injecting Compound 2 into the abdominal cavity of a live mouse and extracting an organ, and a set (2′) was prepared by extracting each organ of a mouse and immersing the organ in a solution of Compound 2. The mouse used in the experiment was a C57BL6 type (SAMTAKO Corp.), which is five weeks old. More particularly, for the set (1′), 20 μL of a 10 mM solution of Compound 2, which had been taken and diluted in 280 μL of a PBS (100 mM, pH 7.4) buffer, was injected into the abdominal cavity of a mouse twice a day for a total of 5 days, and then each organ was extracted. The extracted organ was frozen in dry ice for 5 minutes, crushed into smaller pieces with a hammer, and cut to a thickness of 16 μm using a section machine (Cryostat machine, Leica, CM3000 model). […] Subsequently, the resultant sample was washed three times with a PBS buffer, covered with a mount solution (Gel Mount, BIOMEDA), and then imaged using a two-photon fluorescence microscope, which is the same as used in Example 7. However, an excitation wavelength and laser power of the two-photon fluorescence microscope were 880 nm and 40 mW, respectively. Also, for the set (2′), first, each organ of a mouse was extracted and immersed in a solution (10 μM) of Compound 2 for 10 minutes, and then a sample prepared as described above was imaged by the same method used for the set (1′).

HeLa cells [5] = test: Cell imaging using one-photon and two-photon fluorescence microscopes; format: cell-based, human; conditions: probe 10 μM
Method: To observe a fluorescence change according to the treatment with Compound 2 through cell imaging using one-photon and two-photon fluorescence microscopes, Compound 2 (10 μM) was treated with human cervical carcinoma cells (HeLa cells). The HeLa cells were cultured in a Dulbecco's modified eagles medium (DMEM, Hyclone) containing 10% fetal bovine serum (Hyclone) and penicillin-streptomycin (Hyclone) with 5% carbon dioxide at an ambient temperature of 37° C. to a cell density of about 20,000 cells/cm^2, and used in the experiment. The used one-photon fluorescence microscope is an LSM710 confocal microscope manufactured by Carl Ziess, and the two-photon fluorescence microscope is a Chameleon Ultra model having a Ti-sapphire laser, which is manufactured by Coherent. A lens used in the two-photon fluorescence microscope is an XLUMPLFNM, NA 1.0 model manufactured by Olympus, and a wavelength and laser power of the two-photon fluorescence microscope are 880 nm and 15 mW, respectively. […]

[6] = Fluorescence change on reaction with various types of biological substances; conditions: Compound 10 μM; amino acids, lipoic acid, anions, H2O2 each 100 μM; about 30 minutes; pH 7.4 HEPES buffer
Method: To observe fluorescence changes according to reactions between various types of biological substances and Compound 2, Compound 2 (10 μM) was reacted with a biologically-active substance (an amino acid (Ala, Glu, Lys, or Met), lipoic acid, an anion (NO^2−, SO4^2−, S2O3^2−, SCN^−, or I^−), and active oxygen (H2O2). A buffer used in the experiment was the same as used in Example 1, and the concentration of each biologically-active substance was 100 μM. Each biologically-active substance was added, and after about 30 minutes, an excitation wavelength was 375 nm, and a fluorescence emission wavelength was detected to be 510 nm.

[7] = 100 μM hydrogen sulfide, pH 7.4 10 mM HEPES buffer, excitation 375 nm, emission 510 nm

For `COc1cc(C=O)c(/C=C/C(=O)c2ccc3cc(NCCO)ccc3c2)c(OC)c1` [Compound 2, (E)-2-(3-(6-(2-hydroxyethylamino)naphthalene-2-yl)-3-oxoprop-1-enyl)-3,5-dimethoxybenzaldehyde], the “signal to noise ratio of fluorescence turn-on” value ([1]; 50 nM Na2S, about 5 minutes after addition, pH 7.4 HEPES buffer) was no less than 3, the “fluorescence change due to hydrogen sulfide under various acidity (pH) conditions” value ([1]; 100 μM H2S, pH 5, 6, 7, 8 or 9, 5 minutes) was “the sharpest increase in fluorescence was shown at neutral pH” and the “time to approach the maximum fluorescence level” value [1, 7] was no more than 5 min. For the same compound, the “time to saturation of fluorescence emission” value [1, 7] was “about 10 minutes”, the “fluorescence change with increasing concentration of hydrogen sulfide” value ([1]; hydrogen sulfide 0 to 50 μM, after 5 minutes, pH 7.4 10 mM HEPES buffer, excitation 375 nm, emission 510 nm) was “fluorescence intensity was increased” and the “low concentration of Na2S (H2S) at which fluorescence can be observed (sensitivity)” value ([1]; pH 7.4 HEPES buffer, excitation 375 nm, emission 510 nm) was 50 nM. The “selectivity to hydrogen sulfide under biological sulfide conditions” value [2] was “sufficient fluorescence turn-on phenomenon only in a reaction with Na2S; also recorded: high selectivity to hydrogen sulfide”, the cytotoxicity (HeLa cells [3]; 0˜100 μM) was “not toxic to the cells” and the cell viability (HeLa cells [3]; concentrations until 100 μM) was no less than 95%. For the same compound, the “two-photon fluorescence signal in organs after abdominal injection” value ([4]; set (1′): C57BL6 mouse, injected into the abdominal cavity twice a day for 5 days, organs extracted) was “signals are increased in the brain, kidney, liver, spleen and lung”, the “permeation into organs after abdominal injection” value ([4]; set (1′): living C57BL6 mouse, abdominal injection) was “permeated throughout the organ, particularly, into the brain” and the “two-photon fluorescence change in extracted organs immersed in probe solution” value ([4]; set (2′): extracted mouse organs immersed in 10 μM solution for 10 minutes) was “strong fluorescence changes are shown in the brain, liver and lung”. The permeation into cells (HeLa cells [5]) was “easily permeates into cells”, the “fluorescence change in cells treated only with the probe” value (HeLa cells [5]; cultured 30 minutes, set (2)) was “showed an increase in fluorescence” and the “selective fluorescence turn-on versus various biologically-active substances” value [6] was “only reacts with hydrogen sulfide (H2S)”.
For `O=Cc1ccccc1/C=C/C(=O)c1ccc2cc(NCCO)ccc2c1` [Compound 4, (E)-2-(3-(6-(2-hydroxyethylamino)naphthalene-2-yl)-3-oxoprop-1-enyl)benzaldehyde], the “selectivity to hydrogen sulfide under biological sulfide conditions” value [2] was “did not have selectivity to hydrogen sulfide”.
For `COc1cccc(C=O)c1/C=C/C(=O)c1ccc2cc(NCCO)ccc2c1` [Compound 3, (E)-2-(3-(6-(2-hydroxyethylamino)naphthalene-2-yl)-3-oxoprop-1-enyl)-3-methoxybenzaldehyde], the “selectivity to hydrogen sulfide under biological sulfide conditions” value [2] was “relatively lower selectivity to hydrogen sulfide than Compound 2”.
